Measured values as given in patent US11083805B2, “Radiolabeled GRPR-antagonists for diagnostic imaging and treatment of GRPR-positive cancer” (Advanced Accelerator Applications International SA, priority 2012, dated 2021).

Tests used:
[1] = Metabolic study in mice (radiochromatogram of ex-vivo mouse blood); design: species or system Swiss albino mice; conditions: mouse blood 5 min after injection
Experimental: A bolus containing the radioligand in normal saline (100-150 μL, =3 nmol, 200-500 μCi) was injected in the tail vein of Swiss albino mice. Animals were kept for 5 min in a cage with access to water and were then euthanized promptly by cardiac puncture while under a mild ether anesthesia. Blood (500-900 μL) was collected from the heart with a syringe and transferred in a pre-chilled Eppendorf tube on ice.
Blood was centrifuged to remove blood cells (10 min, 2000 g/4° C.). The plasma was collected, mixed with acetonitrile (MeCN) in a 1/1 v/v ratio and centrifuged again (10 min, 15000 g/4° C.). Supernatants were concentrated to a small volume (gentle N2-flux at 40° C.), diluted with saline (z 400 μL) and filtered through a Millex GV filter (0.22 μm).
Aliquots of plasma samples (prepared as described above) were loaded on a Symmetry Shield RPM column which was eluted at a flow rate of 1.0 mL/min with the following gradient: 100% A to 90% A in 10 min and from 90% A to 60% for the next 60 min (A=0.1% aqueous TFA (v/v) and B=MeCN). Elution of radiocomponents was monitored by a gamma detector. For ^99mTc-radiopeptides, ITLC-SG analysis was performed in parallel using acetone as the eluent to detect traces of TcO4^− release (TcO4^− Rf=1.0).

PC-3 tumors (hGRPR+) = experiment: Biodistribution in GRPR+ tumor bearing mice; type: in vivo, female SCID mice; conditions: for uptake in PC-3 tumor: iv, 10 pmol total peptide
Experimental: A 150 μL bolus containing a suspension of 1.5×10^7 freshly harvested human PC-3 cells in normal saline was subcutaneously injected in the flanks of female SCID mice. The animals were kept under aseptic conditions and 2-3 weeks later developed well-palpable tumors at the inoculation site (80-150 mg).
On the day of the experiment, the selected radiopeptide was injected in the tail vein of tumor-bearing mice as a 100 μL bolus (1-2 μCi, 10 pmol total peptide; in saline/EtOH 9/1 v/v). Animals were sacrificed in groups of four under a mild ether anesthesia by cardiac puncture at predetermined time points pi (postinjection). Additional sets of three to four animals were co-injected with excess [Tyr^4]BBN (≈40 nmol) along with test radiopeptide and were sacrificed at 4 h pi (blocked animals). Samples of blood and tissues of interest were immediately collected, weighed and measured for radioactivity in a γ-counter. Stomach and intestines were not emptied of their contents, but measured as collected. Biodistribution data were calculated as percent injected dose per gram tissue (% ID/g) using the Microsoft Excel program with the aid of suitable standards of the injected dose.

[2] = tested on: human prostate cancer PC-3 xenografts; conditions: cited from earlier work
malignant lesions = conditions: cited from earlier work

For `CC(C)CC(CC(C)C)NC(=O)[C@H](Cc1cnc[nH]1)NC(=O)CNC(=O)[C@@H](NC(=O)[C@H](C)NC(=O)[C@H](Cc1c[nH]c2ccccc12)NC(=O)[C@H](CCC(N)=O)NC(=O)[C@@H](Cc1ccccc1)NC(=O)COCC(=O)Nc1ccc(CNC(=O)CN2CCN(CC(=O)O)CCN(CC(=O)O)CCN(CC(=O)O)CC2)cc1)C(C)C` [[67Ga]NeoBOMB-1] [^67Ga-DOTA-(p-aminobenzylamine-diglycolic acid)-[DPhe^6,His^12-CO—NH—CH[(CH2CH(CH3)2]2,des-Leu^3, des-Met^4]BBN(6-14), metal not drawn], the “percentage of parent peptide remaining intact” value [1] was greater than 97%.
For `CC(C)CC(CC(C)C)NC(=O)[C@H](Cc1cnc[nH]1)NC(=O)CNC(=O)[C@@H](NC(=O)[C@H](C)NC(=O)[C@H](Cc1c[nH]c2ccccc12)NC(=O)[C@H](CCC(N)=O)NC(=O)[C@@H](Cc1ccccc1)NC(=O)COCC(=O)Nc1ccc(CNC(=O)C2C[N]3CC[NH][Tc]34(=[O])(=[O])[NH]CC[N]4C2)cc1)C(C)C` (some centres unmarked) [[99mTc]NeoBOMB-2], the “uptake in PC-3 tumor” value (PC-3 tumors (hGRPR+); 1 h pi) was roughly 30 % ID/g, the “uptake in PC-3 tumor” value (PC-3 tumors (hGRPR+); 4 h pi) was roughly 30 % ID/g and the “uptake in PC-3 tumor” value (PC-3 tumors (hGRPR+); 24 h pi) was greater than 25 % ID/g. The “percentage of parent peptide remaining intact” value [1] was greater than 88%.
With `CC(C)CC(CC(C)C)NC(=O)[C@H](Cc1cnc[nH]1)NC(=O)CNC(=O)[C@@H](NC(=O)[C@H](C)NC(=O)[C@H](Cc1c[nH]c2ccccc12)NC(=O)[C@H](CCC(N)=O)NC(=O)[C@@H](Cc1ccccc1)NC(=O)COCC(=O)Nc1ccc(CNC(=O)CN2CCN(CC(=O)O)CCN(CC(=O)O)CCN(CC(=O)O)CC2)cc1)C(C)C` [[111In]NeoBOMB-1] [^111In-DOTA-(p-aminobenzylamine-diglycolic acid)-[DPhe^6,His^12-CO—NH—CH[(CH2CH(CH3)2)2,des-Leu^13,des-Met^14]BBN(6-14), metal not drawn] the “tumor uptake after co-injection of excess [Tyr4]BBN (in vivo receptor blockade)” value (PC-3 tumors (hGRPR+); 4 h pi, excess [Tyr4]BBN (100 μg)) was “significantly reduced”, the “uptake in PC-3 tumor” value (PC-3 tumors (hGRPR+); 4 h pi) was 28.6±6.0 % ID/g and the “uptake in PC-3 tumor” value (PC-3 tumors (hGRPR+); 24 h pi) was 25.9±6.6 % ID/g. For the same compound, the “percentage of parent peptide remaining intact” value [1] was greater than 91%.
For `CC(C)CC(CC(C)C)NC(=O)[C@H](Cc1cnc[nH]1)NC(=O)CNC(=O)[C@@H](NC(=O)[C@H](C)NC(=O)[C@H](Cc1c[nH]c2ccccc12)NC(=O)[C@H](CCC(N)=O)NC(=O)[C@@H](Cc1ccccc1)NC(=O)COCC(=O)Nc1ccc(CNC(=O)CN2CCN(CC(=O)O)CCN(CC(=O)O)CCN(CC(=O)O)CC2)cc1)C(C)C` [[177Lu]NeoBOMB-1] [^177Lu-DOTA-(p-aminobenzylamine-diglycolic acid)-[DPhe^6,His^12-CO—NH—CH[(CH2CH(CH3)2]2,des-Leu^13,des-Met^14]BBN(6-14), metal not drawn], the “tumor-to-pancreas ratios over time” value (PC-3 tumors (hGRPR+); 4, 24 and 72 h pi, especially at 72 h pi) was “increasingly higher tumor-to-pancreas ratios” and the “percentage of parent peptide remaining intact” value [1] was greater than 92%.
For “[^99mTc—N4′]DPhe-Gln-Trp-Ala-Val-Gly-His-Leu-NHEt [[99mTc]Demobesin 1]”, the “tumor accumulation versus bombesin-based agonists ([99mTc]Demobesin 3-6)” value ([2]; mice bearing PC-3 xenografts) is listed as “significantly higher tumor accumulation”, the “clearance from the body of mice and the pancreas” value ([2]; mouse, in vivo) is listed as “cleared very rapidly” and the “body and pancreas clearance” value (malignant lesions; human, in vivo) is listed as “rapid”. For the same compound, the in vivo stability (malignant lesions; human, in vivo) was “rather good”, the tolerability (malignant lesions; human, in vivo) was “excellent tolerability” and the “retention in malignant lesions compared to radiolabeled BBN-like agonists” value (malignant lesions; humans) was “insufficient retention”.
